This is an account of results in paper PMC5218480 (PLoS ONE, 2017).

The subject of the assay is MV-4-11 cells. The assay is described as follows: Gene expression microarray analysis (Affymetrix PrimeView) and GSEA. Type of assay: cell-based, human. On the set-up: RFU PODN (11730768_x_at) / Fold change /veh PODN (11730768_x_at) / RFU LINC00158 (11744669_a_at) / Fold change /veh LINC00158 (11744669_a_at) / RFU DUSP10 (11751237_a_at) / Fold change /veh DUSP10 (11751237_a_at) / RFU ID3 (11757404_x_at) / Fold change /veh ID3 (11757404_x_at) / RFU PLEKHG5 (11737974_s_at) / Fold change /veh PLEKHG5 (11737974_s_at) / RFU LRRC4B (11730491_at) / Fold change /veh LRRC4B (11730491_at) / RFU GIMAP4 (11747438_a_at) / Fold change /veh GIMAP4 (11747438_a_at) / RFU KRT8 (11758183_x_at) / Fold change /veh KRT8 (11758183_x_at) / RFU CNN1 (11734310_a_at) / Fold change /veh CNN1 (11734310_a_at) / RFU VPS37D (11726825_at) / Fold change /veh VPS37D (11726825_at) / RFU C10orf10 (11716522_x_at) / Fold change /veh C10orf10 (11716522_x_at) / RFU KIR2DL2 /// KIR2DL4 /// KIR2DL5A /// KIR2DL5B /// KIR2DS1 /// KIR2DS2 /// KIR2DS3 /// KIR2DS4 /// KIR3DL3 /// KIR3DL3 /// KIR3DS1 (11738374_at) / Fold change /veh KIR2DL2 /// KIR2DL4 /// KIR2DL5A /// KIR2DL5B /// KIR2DS1 /// KIR2DS2 /// KIR2DS3 /// KIR2DS4 /// KIR3DL3 /// KIR3DL3 /// KIR3DS1 (11738374_at) / RFU C1QL1 (11718748_at) / Fold change /veh C1QL1 (11718748_at) / RFU TMPRSS4 (11747572_a_at) / Fold change /veh TMPRSS4 (11747572_a_at) / RFU HAMP (11756126_x_at) / Fold change /veh HAMP (11756126_x_at) / RFU RNFT2 (11725882_a_at) / Fold change /veh RNFT2 (11725882_a_at) / RFU NR4A2 (11747474_a_at) / Fold change /veh NR4A2 (11747474_a_at) / RFU ABCC12 (11746883_a_at) / Fold change /veh ABCC12 (11746883_a_at) / RFU TMEM136 (11760407_x_at) / Fold change /veh TMEM136 (11760407_x_at) / RFU CLDN22 /// WWC2 (11732394_at) / Fold change /veh CLDN22 /// WWC2 (11732394_at) / RFU HLA-DPB1 (11760878_x_at) / Fold change /veh HLA-DPB1 (11760878_x_at) / RFU SPINT1 (11716480_a_at) / Fold change /veh SPINT1 (11716480_a_at) / RFU GAP43 (11754022_s_at) / Fold change /veh GAP43 (11754022_s_at) / RFU A4GNT (11735810_at) / Fold change /veh A4GNT (11735810_at) / RFU PRB3 (11715151_x_at) / Fold change /veh PRB3 (11715151_x_at) / RFU TUBB4B (11761932_at) / Fold change /veh TUBB4B (11761932_at) / RFU CAPN14 (11732068_a_at) / Fold change /veh CAPN14 (11732068_a_at) / RFU TMCC2 (11721928_a_at) / Fold change /veh TMCC2 (11721928_a_at) / RFU IRGQ (11745062_a_at) / Fold change /veh IRGQ (11745062_a_at) / RFU FAM174B (11720279_a_at) / Fold change /veh FAM174B (11720279_a_at) / RFU TMPRSS4 (11748680_a_at) / Fold change /veh TMPRSS4 (11748680_a_at) / RFU FAM212B (11763350_a_at) / Fold change /veh FAM212B (11763350_a_at) / RFU PLEKHG5 (11743358_a_at) / Fold change /veh PLEKHG5 (11743358_a_at) / RFU ZSCAN30 (11745921_a_at) / Fold change /veh ZSCAN30 (11745921_a_at) / RFU CMKLR1 (11741424_a_at) / Fold change /veh CMKLR1 (11741424_a_at) / RFU LOC101060620 /// MAPK8IP1 (11723275_at) / Fold change /veh LOC101060620 /// MAPK8IP1 (11723275_at) / RFU SPTSSB (11747773_x_at) / Fold change /veh SPTSSB (11747773_x_at) / RFU PRSS12 (11739890_at) / Fold change /veh PRSS12 (11739890_at) / RFU BIN1 (11741810_x_at) / Fold change /veh BIN1 (11741810_x_at) / RFU WNT11 (11732464_a_at) / Fold change /veh WNT11 (11732464_a_at) / RFU C10orf10 (11716521_a_at) / Fold change /veh C10orf10 (11716521_a_at) / RFU C5orf56 (11738089_at) / Fold change /veh C5orf56 (11738089_at) / RFU CYB561 (11721691_x_at) / Fold change /veh CYB561 (11721691_x_at) / RFU ANKRD19P (11752326_a_at) / Fold change /veh ANKRD19P (11752326_a_at) / RFU OR2T12 /// OR2T33 /// OR2T8 (11738714_s_at) / Fold change /veh OR2T12 /// OR2T33 /// OR2T8 (11738714_s_at) / RFU VCAN (11748164_a_at) / Fold change /veh VCAN (11748164_a_at) / RFU JSRP1 (11732532_at) / Fold change /veh JSRP1 (11732532_at) / RFU KRTAP10-11 (11738290_x_at) / Fold change /veh KRTAP10-11 (11738290_x_at) / RFU MYO3A (11730013_a_at) / Fold change /veh MYO3A (11730013_a_at) / RFU EBF3 (11725865_a_at) / Fold change /veh EBF3 (11725865_a_at) / RFU CAMK2N1 (11719241_x_at) / Fold change /veh CAMK2N1 (11719241_x_at) / RFU C5orf56 (11738088_a_at) / Fold change /veh C5orf56 (11738088_a_at) / RFU OLFML3 (11715873_a_at) / Fold change /veh OLFML3 (11715873_a_at) / RFU LOC100653217 /// NTM (11731650_a_at) / Fold change /veh LOC100653217 /// NTM (11731650_a_at) / RFU MAPK11 (11762145_a_at) / Fold change /veh MAPK11 (11762145_a_at) / RFU FIZ1 (11724087_x_at) / Fold change /veh FIZ1 (11724087_x_at) / RFU OASL (11726364_x_at) / Fold change /veh OASL (11726364_x_at) / RFU SOX15 (11748057_x_at) / Fold change /veh SOX15 (11748057_x_at) / RFU CD79A (11719716_a_at) / Fold change /veh CD79A (11719716_a_at) / RFU HIST1H1D (11736915_at) / Fold change /veh HIST1H1D (11736915_at) / RFU CASKIN2 (11723855_a_at) / Fold change /veh CASKIN2 (11723855_a_at) / RFU LOC730098 (11760151_x_at) / Fold change /veh LOC730098 (11760151_x_at) / RFU OR4N2 (11742367_at) / Fold change /veh OR4N2 (11742367_at) / RFU PRRT2 (11749266_a_at) / Fold change /veh PRRT2 (11749266_a_at) / RFU SNX32 (11753110_a_at) / Fold change /veh SNX32 (11753110_a_at) / RFU CDHR5 (11726645_a_at) / Fold change /veh CDHR5 (11726645_a_at) / RFU RCAN1 (11760418_a_at) / Fold change /veh RCAN1 (11760418_a_at) / RFU FAM167A (11723789_a_at) / Fold change /veh FAM167A (11723789_a_at) / RFU FAM26E (11764081_at) / Fold change /veh FAM26E (11764081_at) / RFU ISYNA1 (11749810_s_at) / Fold change /veh ISYNA1 (11749810_s_at) / RFU ACY1 (11761880_at) / Fold change /veh ACY1 (11761880_at) / RFU 11764098_at / Fold change /veh 11764098_at / RFU SAMD14 (11745864_x_at) / Fold change /veh SAMD14 (11745864_x_at) / RFU NPB (11741838_a_at) / Fold change /veh NPB (11741838_a_at) / RFU TMPRSS6 (11731388_a_at) / Fold change /veh TMPRSS6 (11731388_a_at) / RFU KRTAP10-2 (11738614_at) / Fold change /veh KRTAP10-2 (11738614_at) / RFU ARHGAP8 /// PRR5-ARHGAP8 (11727945_x_at) / Fold change /veh ARHGAP8 /// PRR5-ARHGAP8 (11727945_x_at) / RFU KRTAP5-7 /// NADSYN1 (11734609_at) / Fold change /veh KRTAP5-7 /// NADSYN1 (11734609_at) / RFU RASL12 (11751679_a_at) / Fold change /veh RASL12 (11751679_a_at) / RFU CDKN2B (11736163_a_at) / Fold change /veh CDKN2B (11736163_a_at) / RFU PRF1 (11729649_at) / Fold change /veh PRF1 (11729649_at) / RFU, ZNF638 /// ZNF638-IT1 / Fold change vs veh, ZNF638 /// ZNF638-IT1 / RFU, PANK3 / Fold change vs veh, PANK3 / RFU, SH3YL1 / Fold change vs veh, SH3YL1 / RFU, ZEB2 / Fold change vs veh, ZEB2 / RFU, NRIP1 / Fold change vs veh, NRIP1 / RFU, PTTG1IP / Fold change vs veh, PTTG1IP / RFU, CAPN2 / Fold change vs veh, CAPN2 / RFU, MED14 / Fold change vs veh, MED14 / RFU, SNORA58 / Fold change vs veh, SNORA58 / RFU, C1orf63 / Fold change vs veh, C1orf63 / RFU, LRRFIP1 / Fold change vs veh, LRRFIP1 / RFU, NDUFAF7 / Fold change vs veh, NDUFAF7 / RFU, SLC12A2 / Fold change vs veh, SLC12A2 / RFU, IBTK / Fold change vs veh, IBTK / RFU, ESF1 / Fold change vs veh, ESF1 / Fold change vs veh, TMEM50B / RFU, TAOK1 / Fold change vs veh, TAOK1 / RFU, ACBD3 / Fold change vs veh, ACBD3 / RFU, TMA16 / Fold change vs veh, TMA16 / RFU, RWDD3 / Fold change vs veh, RWDD3 / RFU, BCAT1 / Fold change vs veh, BCAT1 / RFU, EDEM3 / Fold change vs veh, EDEM3 / RFU, TMEM33 / Fold change vs veh, TMEM33 / RFU, WDR75 / Fold change vs veh, WDR75 / RFU, AHCTF1 / Fold change vs veh, AHCTF1 / RFU, TFRC / Fold change vs veh, TFRC / RFU, ZDHHC17 / Fold change vs veh, ZDHHC17 / RFU, NOM1 / Fold change vs veh, NOM1 / RFU, ARL8B / Fold change vs veh, ARL8B / RFU, ZBTB11 / Fold change vs veh, ZBTB11 / RFU, TAMM41 / Fold change vs veh, TAMM41 / RFU, KIAA1704 /// LOC100996395 / Fold change vs veh, KIAA1704 /// LOC100996395 / RFU, ING1 / Fold change vs veh, ING1 / RFU, TRMT61B / Fold change vs veh, TRMT61B / RFU, FUBP3 / Fold change vs veh, FUBP3 / RFU, TP53 / Fold change vs veh, TP53 / RFU, TNKS2 / Fold change vs veh, TNKS2 / RFU, ZFP14 / Fold change vs veh, ZFP14 / RFU, ACTR2 / Fold change vs veh, ACTR2 / RFU, PPP3R1 / Fold change vs veh, PPP3R1 / RFU, PIK3R1 / Fold change vs veh, PIK3R1 / RFU, HNRNPA1 / Fold change vs veh, HNRNPA1 / RFU, RNF170 / Fold change vs veh, RNF170 / RFU, ZNF28 / Fold change vs veh, ZNF28 / RFU, RNGTT / Fold change vs veh, RNGTT / RFU, OGT / Fold change vs veh, OGT / RFU, BRD1 / Fold change vs veh, BRD1 / RFU, MARS / Fold change vs veh, MARS / RFU, ZNF655 / Fold change vs veh, ZNF655 / RFU, FAHD1 / Fold change vs veh, FAHD1 / RFU, BDP1 / Fold change vs veh, BDP1 / RFU, LRRCC1 / Fold change vs veh, LRRCC1 / RFU, ARID1A / Fold change vs veh, ARID1A / RFU, ZNF146 / Fold change vs veh, ZNF146 / RFU, ZNF330 / Fold change vs veh, ZNF330 / RFU, GPN3 / Fold change vs veh, GPN3 / RFU, C9orf123 / Fold change vs veh, C9orf123 / RFU, N4BP2L2 / Fold change vs veh, N4BP2L2 / RFU, ARFIP1 / Fold change vs veh, ARFIP1 / RFU, FAM179B / Fold change vs veh, FAM179B / RFU, BCL10 / Fold change vs veh, BCL10 / RFU, UHRF1BP1L / Fold change vs veh, UHRF1BP1L / RFU, BET1 / Fold change vs veh, BET1 / RFU, CNOT2 / Fold change vs veh, CNOT2 / RFU, ZNF268 / Fold change vs veh, ZNF268 / Fold change vs veh, ZNF507 / RFU, DGCR2 / Fold change vs veh, DGCR2 / RFU, WDSUB1 / Fold change vs veh, WDSUB1 / Fold change vs veh, HSP90B1 /// MIR3652 / RFU, ADSS / Fold change vs veh, ADSS / RFU, GK / Fold change vs veh, GK / RFU, ZNF148 / Fold change vs veh, ZNF148 / RFU, TAF9 / Fold change vs veh, TAF9 / RFU, SLC1A5 / Fold change vs veh, SLC1A5 / RFU, SLMO2 / Fold change vs veh, SLMO2 / RFU, ABCC4 / Fold change vs veh, ABCC4 / RFU, LOC101060439 /// RAP1B / Fold change vs veh, LOC101060439 /// RAP1B / RFU, RFX7 / Fold change vs veh, RFX7 / RFU, GTPBP10 / Fold change vs veh, GTPBP10 / RFU, CNEP1R1 / Fold change vs veh, CNEP1R1 / RFU, BIVM-ERCC5 /// ERCC5 / Fold change vs veh, BIVM-ERCC5 /// ERCC5 / RFU, ILF3 / Fold change vs veh, ILF3 / RFU 11762660_at / Fold change /veh 11762660_at / RFU VCAN (11757783_s_at) / Fold change /veh VCAN (11757783_s_at) / RFU DDX43 (11728927_at) / Fold change /veh DDX43 (11728927_at) / RFU KRT8 (11758188_x_at) / Fold change /veh KRT8 (11758188_x_at) / RFU NKD1 (11759106_at) / Fold change /veh NKD1 (11759106_at) / RFU SRD5A1 (11742802_a_at) / Fold change /veh SRD5A1 (11742802_a_at) / RFU TPSAB1 /// TPSB2 (11721975_s_at) / Fold change /veh TPSAB1 /// TPSB2 (11721975_s_at) / RFU GSTM3 (11746129_a_at) / Fold change /veh GSTM3 (11746129_a_at) / RFU IL23R (11737362_x_at) / Fold change /veh IL23R (11737362_x_at) / RFU TMEM51 (11727254_a_at) / Fold change /veh TMEM51 (11727254_a_at) / RFU PIWIL2 (11732686_x_at) / Fold change /veh PIWIL2 (11732686_x_at) / RFU ORM1 (11744905_x_at) / Fold change /veh ORM1 (11744905_x_at) / RFU CCDC152 (11743942_at) / Fold change /veh CCDC152 (11743942_at) / RFU ECM1 (11717891_a_at) / Fold change /veh ECM1 (11717891_a_at) / RFU IL23R (11748794_a_at) / Fold change /veh IL23R (11748794_a_at) / RFU TNFAIP8L3 (11732012_x_at) / Fold change /veh TNFAIP8L3 (11732012_x_at) / RFU MBOAT4 (11741988_at) / Fold change /veh MBOAT4 (11741988_at) / RFU 11764193_at / Fold change /veh 11764193_at / RFU TMEM53 (11763286_at) / Fold change /veh TMEM53 (11763286_at) / RFU MAGEB2 (11727129_at) / Fold change /veh MAGEB2 (11727129_at) / RFU TMEM200A (11744735_a_at) / Fold change /veh TMEM200A (11744735_a_at) / RFU CCDC152 (11751479_a_at) / Fold change /veh CCDC152 (11751479_a_at) / RFU FAM211A (11726209_a_at) / Fold change /veh FAM211A (11726209_a_at) / RFU RGS16 (11746705_a_at) / Fold change /veh RGS16 (11746705_a_at) / RFU VCAN (11755009_s_at) / Fold change /veh VCAN (11755009_s_at) / RFU RHOB (11743442_s_at) / Fold change /veh RHOB (11743442_s_at) / RFU RGS16 (11720943_a_at) / Fold change /veh RGS16 (11720943_a_at) / RFU RGS16 (11720944_at) / Fold change /veh RGS16 (11720944_at) / RFU, VPS4B / Fold change vs veh, VPS4B / RFU, CREB1 / Fold change vs veh, CREB1 / RFU, DNAJC13 / Fold change vs veh, DNAJC13 / RFU, GNAQ / Fold change vs veh, GNAQ / RFU, CDK5R1 / Fold change vs veh, CDK5R1 / RFU, ZRANB3 / Fold change vs veh, ZRANB3 / RFU, CUL4A / Fold change vs veh, CUL4A / RFU, CCNY / Fold change vs veh, CCNY / RFU, UFL1 / Fold change vs veh, UFL1 / RFU, COG3 / Fold change vs veh, COG3 / RFU, DIAPH2 / Fold change vs veh, DIAPH2 / RFU, SKA2 / Fold change vs veh, SKA2 / RFU, AFF3 / Fold change vs veh, AFF3 / RFU, LMF1 / Fold change vs veh, LMF1 / RFU, IPO11 / Fold change vs veh, IPO11 / RFU, DFFB / Fold change vs veh, DFFB / RFU, FOXP1 / Fold change vs veh, FOXP1 / RFU, CARD8 / Fold change vs veh, CARD8 / RFU, STRN3 / Fold change vs veh, STRN3 / RFU, ADK / Fold change vs veh, ADK / RFU, RASSF2 / Fold change vs veh, RASSF2 / RFU, WIPF1 / Fold change vs veh, WIPF1 / RFU, LARP1B / Fold change vs veh, LARP1B / RFU, RASA1 / Fold change vs veh, RASA1 / RFU, RB1 / Fold change vs veh, RB1 / RFU, PPFIA1 / Fold change vs veh, PPFIA1 / RFU, MAT2A / Fold change vs veh, MAT2A / RFU, CCT5 / Fold change vs veh, CCT5 / RFU, WDR92 / Fold change vs veh, WDR92 / RFU, CUX1 / Fold change vs veh, CUX1 / RFU, TTC7A / Fold change vs veh, TTC7A / RFU, TMEM135 / Fold change vs veh, TMEM135 / RFU, DEPTOR / Fold change vs veh, DEPTOR / RFU, CPM / Fold change vs veh, CPM / RFU, DNAJB6 / Fold change vs veh, DNAJB6 / RFU, CACNA2D3 / Fold change vs veh, CACNA2D3 / RFU, DTX4 / Fold change vs veh, DTX4 / RFU, TFCP2 / Fold change vs veh, TFCP2 / RFU, GMCL1 /// GMCL1P1 / Fold change vs veh, GMCL1 /// GMCL1P1 / RFU, AEBP2 / Fold change vs veh, AEBP2 / RFU, SNHG1 /// SNORD22 /// SNORD25 /// SNORD26 /// SNORD27 /// SNORD28 /// SNORD29 /// SNORD31 / Fold change vs veh, SNHG1 /// SNORD22 /// SNORD25 /// SNORD26 /// SNORD27 /// SNORD28 /// SNORD29 /// SNORD31 / Fold change (Aza/veh), C12orf56 (ProbeSet 11735607_a_at) / Fold change (ACY-1035/veh), C12orf56 (ProbeSet 11735607_a_at) / Fold change (Aza/veh), FGFR1OP (ProbeSet 11751329_s_at) / Fold change (ACY-1035/veh), FGFR1OP (ProbeSet 11751329_s_at) / Fold change (Aza/veh), VPS36 (ProbeSet 11739960_a_at) / Fold change (ACY-1035/veh), VPS36 (ProbeSet 11739960_a_at) / RFU SYPL1 (11715823_x_at) / Fold change /veh SYPL1 (11715823_x_at) / RFU IGFBP7 (11715501_s_at) / Fold change /veh IGFBP7 (11715501_s_at) / RFU REEP3 (11722064_at) / Fold change /veh REEP3 (11722064_at) / RFU IGLL1 (11728026_x_at) / Fold change /veh IGLL1 (11728026_x_at): dose or concentration left out as unconfirmed. The following applies: MV-4-11 cells, 48 hours.

Each structure is given as a SMILES string.

Turning to `Nc1ccc(-c2cccs2)cc1NC(=O)c1ccc2c(c1)cc(C1CC1)n2CCN1CCOCC1` [ACY-1035], the “Fold change /veh GIMAP4 (11747438_a_at)” value stood at 1.02.
